Structures can show the parent of a compound that is named as a salt. Activity calls are given as the source filed them.
Assays:
INS1 = experiment: INS-1E survival protection against cytokine death – cell-based, luminescence, retest, dose response (AID 449756); type: functional; settings: Rattus norvegicus;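 note: cell death triggered by IL-1 beta plus TNF-alpha plus IFN-gamma mixture; protective hits raise ATP signal compared with cytokine alone wells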
NADPH oxidase 1 = NADPH oxidase 1 (Homo sapiens, UniProt Q9Y5S8); experiment: Late-stage luminescence-based cell-based dose response assay to identify inhibitors of NADPH oxidase 1 (NOX1): Synthesized analogs.; type: functional
Sequence of NADPH oxidase 1 (Q9Y5S8 whole entry): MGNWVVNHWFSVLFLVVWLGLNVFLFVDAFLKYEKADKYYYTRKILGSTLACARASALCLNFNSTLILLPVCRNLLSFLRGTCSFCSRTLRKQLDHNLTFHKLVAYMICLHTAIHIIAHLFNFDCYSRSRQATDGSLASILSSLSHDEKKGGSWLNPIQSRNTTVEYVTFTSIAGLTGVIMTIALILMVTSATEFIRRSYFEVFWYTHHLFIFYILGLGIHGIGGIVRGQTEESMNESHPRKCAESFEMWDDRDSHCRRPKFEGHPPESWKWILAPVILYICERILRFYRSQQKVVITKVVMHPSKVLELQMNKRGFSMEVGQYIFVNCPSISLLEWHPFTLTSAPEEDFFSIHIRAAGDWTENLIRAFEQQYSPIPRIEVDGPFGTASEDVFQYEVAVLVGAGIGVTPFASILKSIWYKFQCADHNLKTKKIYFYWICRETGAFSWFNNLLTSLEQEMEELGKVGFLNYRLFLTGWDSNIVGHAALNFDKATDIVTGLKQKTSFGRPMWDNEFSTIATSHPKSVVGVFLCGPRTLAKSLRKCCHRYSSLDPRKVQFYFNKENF

[1] = viability of uninfected HEp-2 cells – cell-based, HTS, cytotoxicity control for RSV inhibitor project, dose response (AID 2410); type: functional; settings: human respiratory syncytial virus
[2] = viability loss in Vero cells – cytotoxicity control for Vif-APOBEC3G degradation inhibitor project, dose response (AID 1117358); type: functional; settings: Vero
Protein skinhead-1 = target: T1, Protein skinhead-1 (Caenorhabditis elegans, UniProt P34707); type: functional
T1 sequence (P34707 whole entry): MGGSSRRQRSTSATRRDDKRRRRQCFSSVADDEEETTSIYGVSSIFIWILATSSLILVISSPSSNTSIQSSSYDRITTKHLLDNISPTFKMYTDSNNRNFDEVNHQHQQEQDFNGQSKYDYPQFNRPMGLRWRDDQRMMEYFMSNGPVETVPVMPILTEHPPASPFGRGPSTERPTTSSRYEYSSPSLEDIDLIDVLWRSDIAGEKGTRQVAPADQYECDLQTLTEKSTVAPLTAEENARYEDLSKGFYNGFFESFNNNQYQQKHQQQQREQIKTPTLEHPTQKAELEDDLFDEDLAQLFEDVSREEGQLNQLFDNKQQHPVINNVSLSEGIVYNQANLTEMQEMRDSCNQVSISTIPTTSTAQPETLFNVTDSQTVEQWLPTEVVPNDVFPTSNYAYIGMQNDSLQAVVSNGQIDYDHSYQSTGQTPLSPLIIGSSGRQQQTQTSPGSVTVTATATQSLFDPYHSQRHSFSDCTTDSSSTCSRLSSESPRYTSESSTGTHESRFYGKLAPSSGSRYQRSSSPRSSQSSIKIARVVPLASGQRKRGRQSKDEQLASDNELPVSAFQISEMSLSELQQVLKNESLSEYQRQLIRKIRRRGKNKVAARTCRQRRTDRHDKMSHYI

[3] = target: T2, Tyrosyl-DNA phosphodiesterase 2 (Homo sapiens, UniProt O95551); experiment: potency against TDP2 phosphodiesterase activity – biochemical, epi absorbance, IC50, dose response (AID 743297)
T2 sequence (O95551 whole entry): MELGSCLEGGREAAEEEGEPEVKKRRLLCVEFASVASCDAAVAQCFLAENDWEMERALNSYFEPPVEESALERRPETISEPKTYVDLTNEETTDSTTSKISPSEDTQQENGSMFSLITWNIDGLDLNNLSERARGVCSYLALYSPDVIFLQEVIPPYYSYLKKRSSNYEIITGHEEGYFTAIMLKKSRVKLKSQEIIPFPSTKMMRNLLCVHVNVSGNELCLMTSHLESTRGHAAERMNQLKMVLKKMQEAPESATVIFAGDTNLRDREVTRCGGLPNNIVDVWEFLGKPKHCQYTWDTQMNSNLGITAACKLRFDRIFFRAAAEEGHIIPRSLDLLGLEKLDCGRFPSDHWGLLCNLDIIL

[4] = target: T3, Sentrin-specific protease 8 (Homo sapiens, UniProt Q96LD8); type: functional
T3 sequence (Q96LD8 whole entry): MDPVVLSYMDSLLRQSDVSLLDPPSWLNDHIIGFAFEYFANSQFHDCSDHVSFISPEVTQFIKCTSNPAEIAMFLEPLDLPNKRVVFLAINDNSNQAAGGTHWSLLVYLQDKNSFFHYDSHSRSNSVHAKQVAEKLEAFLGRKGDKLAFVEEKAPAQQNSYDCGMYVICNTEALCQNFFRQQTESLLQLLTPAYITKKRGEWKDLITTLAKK

[5] = target: Glutathione-S-transferase (Schistosoma japonicum, UniProt Q26513); experiment: GST-antibody interaction or FRET quenching – biochemical, TR-FRET, artefact control for Vif-APOBEC3G degradation inhibitor project, dose response (AID 1117362); type: functional
Sequence of Glutathione-S-transferase (Q26513 whole entry): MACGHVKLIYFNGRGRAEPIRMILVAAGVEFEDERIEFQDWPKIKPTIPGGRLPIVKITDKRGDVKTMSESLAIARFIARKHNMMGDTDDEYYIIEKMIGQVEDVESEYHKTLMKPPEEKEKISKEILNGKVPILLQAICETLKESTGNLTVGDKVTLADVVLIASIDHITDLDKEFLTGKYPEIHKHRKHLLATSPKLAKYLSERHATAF

[6] = target: T3, Sentrin-specific protease 8; type: functional; remark: listed apart in the source
[7] = target: T4, Histone-lysine N-methyltransferase NSD2 (Homo sapiens, UniProt O96028); type: biochemical
T4 sequence (O96028 whole entry): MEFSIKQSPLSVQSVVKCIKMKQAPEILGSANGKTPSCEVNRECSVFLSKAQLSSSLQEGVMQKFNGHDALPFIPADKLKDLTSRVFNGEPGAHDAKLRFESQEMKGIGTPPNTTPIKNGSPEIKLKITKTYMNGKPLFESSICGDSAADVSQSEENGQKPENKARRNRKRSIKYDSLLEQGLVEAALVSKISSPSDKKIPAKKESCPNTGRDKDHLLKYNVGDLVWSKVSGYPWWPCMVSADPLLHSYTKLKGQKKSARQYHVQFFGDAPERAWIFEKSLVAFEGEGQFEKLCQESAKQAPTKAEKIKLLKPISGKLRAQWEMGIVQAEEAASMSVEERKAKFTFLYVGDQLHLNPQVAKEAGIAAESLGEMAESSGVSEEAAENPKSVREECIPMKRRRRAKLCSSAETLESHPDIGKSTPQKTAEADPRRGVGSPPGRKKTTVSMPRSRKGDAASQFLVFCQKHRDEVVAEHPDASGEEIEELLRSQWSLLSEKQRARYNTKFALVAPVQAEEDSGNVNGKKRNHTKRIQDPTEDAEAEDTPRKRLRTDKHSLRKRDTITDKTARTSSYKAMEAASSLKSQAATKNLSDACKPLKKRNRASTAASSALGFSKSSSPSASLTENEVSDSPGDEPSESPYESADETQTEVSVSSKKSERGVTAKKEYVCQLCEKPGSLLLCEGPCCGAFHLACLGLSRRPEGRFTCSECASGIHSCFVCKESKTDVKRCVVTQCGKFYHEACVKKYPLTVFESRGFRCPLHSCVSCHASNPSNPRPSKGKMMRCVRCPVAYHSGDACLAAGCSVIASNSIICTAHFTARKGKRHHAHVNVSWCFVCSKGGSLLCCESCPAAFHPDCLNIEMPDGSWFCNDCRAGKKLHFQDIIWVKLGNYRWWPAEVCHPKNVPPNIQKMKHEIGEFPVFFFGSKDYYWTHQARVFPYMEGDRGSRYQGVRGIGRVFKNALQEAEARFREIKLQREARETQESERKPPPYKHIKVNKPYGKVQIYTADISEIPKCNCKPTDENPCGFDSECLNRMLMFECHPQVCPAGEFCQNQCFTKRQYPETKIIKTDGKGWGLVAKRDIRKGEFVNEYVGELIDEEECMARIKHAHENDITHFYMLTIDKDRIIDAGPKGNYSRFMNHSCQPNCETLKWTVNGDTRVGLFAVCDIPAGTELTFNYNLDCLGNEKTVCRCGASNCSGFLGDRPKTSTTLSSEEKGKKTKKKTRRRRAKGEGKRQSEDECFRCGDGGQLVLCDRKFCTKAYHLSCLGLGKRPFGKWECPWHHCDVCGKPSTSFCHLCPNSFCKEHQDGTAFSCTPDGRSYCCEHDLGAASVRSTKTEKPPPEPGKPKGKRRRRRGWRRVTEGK

Bcl-2-related protein A1 = target: T5, Bcl-2-related protein A1 (Mus musculus, UniProt Q07440); type: functional;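 note: confirmatory dose–response counterscreen on Bfl-1, used to check hits from a UBC13 polyubiquitin inhibitor campaign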
T5 sequence (Q07440 whole entry): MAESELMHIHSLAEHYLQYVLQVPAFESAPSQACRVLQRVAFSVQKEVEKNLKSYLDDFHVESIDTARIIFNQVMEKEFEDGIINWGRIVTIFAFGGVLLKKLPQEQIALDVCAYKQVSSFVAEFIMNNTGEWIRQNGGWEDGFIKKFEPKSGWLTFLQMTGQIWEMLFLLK

[8] = target: T6, Ubiquitin-conjugating enzyme E2 N (Homo sapiens, UniProt P61088); type: functional
T6 sequence (P61088 whole entry): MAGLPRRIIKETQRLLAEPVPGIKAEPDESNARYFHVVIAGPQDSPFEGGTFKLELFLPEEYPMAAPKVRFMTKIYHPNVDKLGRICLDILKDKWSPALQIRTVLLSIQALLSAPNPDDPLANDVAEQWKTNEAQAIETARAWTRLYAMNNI

[9] = target: T6, Ubiquitin-conjugating enzyme E2 N; type: functional; remark: listed apart in the source
[10] = target: Sphingosine 1-phosphate receptor 2 (Homo sapiens, UniProt O95136); experiment: Dose Response Cell Based Assay for Agonists of the S1P2 Receptor. [Related pubchem assays: 729, 736, 843 ]; type: functional
Sequence of Sphingosine 1-phosphate receptor 2 (O95136 whole entry): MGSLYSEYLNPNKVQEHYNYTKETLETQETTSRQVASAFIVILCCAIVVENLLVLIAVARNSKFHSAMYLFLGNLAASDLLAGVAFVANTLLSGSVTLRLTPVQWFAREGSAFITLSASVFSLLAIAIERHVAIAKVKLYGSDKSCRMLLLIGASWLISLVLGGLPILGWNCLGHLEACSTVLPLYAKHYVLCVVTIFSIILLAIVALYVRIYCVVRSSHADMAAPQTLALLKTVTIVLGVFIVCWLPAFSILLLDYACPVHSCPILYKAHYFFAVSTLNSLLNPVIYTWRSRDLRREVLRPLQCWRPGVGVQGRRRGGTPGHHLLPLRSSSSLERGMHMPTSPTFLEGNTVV

[11] = cytotoxicity toward HCT116 cells – cell-based, CellTiter-Glo luminescence, IC50, dose response (AID 1117332); type: functional; settings: HCT-116
[12] = RKO cell viability reduction, dose response, CellTiter-Glo luminescence (AID 1117322); type: functional
[13] = rise of 4N DNA cells, HeLa – IC50, dose response (AID 1117351); type: functional, cell-based
[14] = CellTiter-Glo luminescence survival assay, SW480 colon tumor line, concentration-response curve, half-maximal inhibitory concentration (AID 1117338); type: functional
[15] = HCT116 cell viability decrease, GSK3B pretreatment – CellTiter-Glo, IC50, dose response (AID 1117339); type: functional; settings: HCT-116
[16] = rise of 2N DNA cells, HeLa – IC50, dose response (AID 1117349); type: functional, cell-based
[17] = cytotoxicity toward Colo320 cells – cell-based, CellTiter-Glo luminescence, IC50, dose response (AID 1117334); type: functional; settings: COLO 320
[18] = SNU-C1 cell viability reduction, dose response, CellTiter-Glo luminescence (AID 1117323); type: functional, cell-based
[19] = cytotoxicity toward HT-29 cells – cell-based, CellTiter-Glo luminescence, IC50, dose response (AID 1117330); type: functional
[20] = Reduced DLD-1 viability, concentration-response, CellTiter-Glo luminescence (AID 1117352); type: functional
[21] = lung carcinoma cell viability loss – CellTiter-Glo luminescence, dry powder, set 17, dose response (AID 1117284); type: functional, cell-based; settings: A549
[22] = cell lysis of Cryptococcus neoformans, alamar blue – dry powder, set 3, mechanism study for C. neoformans antifungal project, dose response (AID 743298); type: functional, organism-based
[23] = IC50 of insulin release inhibition, rat insulinoma INS-1E line, 5 mM glucose, cell-based (AID 1117331); type: functional

Cc1ccc2c(c1)Sc1c(ccc3ccccc13)N2
AC50 (INS1): > 260 µM (inactive) | IC50 (NADPH oxidase 1): 1.47 µM (active) | CC50 [1]: 47.8 µM (active)

CSc1ccc(C2Nc3ccccc3-c3cc(C)nn32)cc1 (configuration not stated)
CC50 [2]: > 40 µM (active) | IC50 (Protein skinhead-1): > 100 µM (inactive)

C[n+]1cccc2cccc([O-])c21
IC50 [3]: 60 µM (inactive) | IC50 [4]: 1.01 µM (active) | IC50 [5]: 42.6 µM (active) | IC50 [6]: 1.82 µM (active) | AC50 [7]: 15.1 µM (active)

CCC(=O)c1cc2c(C)cc(=O)oc2c(C)c1O
IC50 (Bcl-2-related protein A1): > 20 µM (inactive) | IC50 [8]: > 20 µM (inactive) | IC50 [9]: 10.5 µM (active) | EC50 [10]: > 50 µM (not active)

NC(N)=NN=C(/C=C/c1ccc([N+](=O)[O-])o1)/C=C/c1ccc([N+](=O)[O-])o1
IC50 [11]: 0.136 µM (active) | IC50 [12]: 0.0128 µM (active) | IC50 [13]: > 10 µM (inactive) | IC50 [14]: 0.0076 µM (active) | IC50 [15]: 0.0237 µM (active) | IC50 [16]: > 10 µM (inactive) | IC50 [17]: 0.003 µM (active) | IC50 [18]: 1.35 µM (active) | IC50 [19]: 0.003 µM (active) | IC50 [20]: > 20 µM (inactive)

COc1ccc(-c2ccc(CN(C)C[C@@H]3Oc4cc(C#C[C@@H](C)O)ccc4S(=O)(=O)N([C@@H](C)CO)C[C@@H]3C)cc2)cc1
AC50 [21]: 29.8 µM (active)

Fc1ccc(OCCn2c(=S)[nH]c3ccccc32)cc1
AC50 [22]: 55.4 µM (active)

CN(C)CCN1C(=O)c2ccccc2N(C)c2ccccc21 [DIBENZEPIN HYDROCHLORIDE]
IC50 [23]: > 33.3 µM (inactive)

From ChEMBL document CHEMBL1201862, “PubChem BioAssay data set” (2004)
